In brackets after ≈: the same amount, converted by molar mass.
Key:
Type in all cases: functional
Staphylococcus aureus = assay: Antibacterial activity against Staphylococcus aureus subsp. aureus ATCC 29213 incubated for 24 hrs by photometry; details: ATCC 29213, 24 h
[1] = tested on: Salmonella enterica subsp. enterica; assay: Antibacterial activity against Salmonella enterica subsp. enterica ATCC 14028 incubated for 24 hrs by photometry; details: ATCC 14028, 24 h
Pseudomonas aeruginosa = assay: Antibacterial activity against Pseudomonas aeruginosa ATCC 27853 incubated for 24 hrs by photometry; details: ATCC 27853, 24 h

SMILES: CC(C)[C@H]1CC(=O)[C@]23[C@@H]4C=C(CO)C[C@@H](O)[C@@H]4[C@@]2(C)CC[C@]13C
- MIC50 (Staphylococcus aureus): 14.3 µg/mL (≈ 44.9 µM)
- MIC50 [1]: 77.9 µg/mL (≈ 245 µM)
- MIC50 (Pseudomonas aeruginosa): > 128 µg/mL

SMILES: CC1(C)S[C@@H]2[C@H](NC(=O)Cc3ccccc3)C(=O)N2C1C(=O)[O-].[Na+] (some centres undefined)
- MIC50 (Staphylococcus aureus): 0.81 µg/mL
- MIC50 [1]: 1.32 µg/mL

SMILES: C[C@H](CO)[C@H]1CC(=O)C23[C@@H]4C=C(CO)CC[C@@H]4[C@@]2(C)CC[C@]13C (some centres undefined)
- MIC50 (Staphylococcus aureus): 22.7 µg/mL (≈ 71.3 µM)
- MIC50 [1]: 102 µg/mL (≈ 319 µM)
- MIC50 (Pseudomonas aeruginosa): > 128 µg/mL

SMILES: CC(C)(O/N=C(\C(=O)N[C@@H]1C(=O)N2C(C(=O)[O-])=C(C[n+]3ccccc3)CS[C@H]12)c1csc(N)n1)C(=O)O [CEFTAZIDIME]
- MIC50 (Pseudomonas aeruginosa): 0.08 µg/mL (≈ 0.146 µM)
